In US8507557B2, “Potentiators of insulin secretion” (Wisconsin Alumni Research Foundation, priority 2003, dated 2013):

Columns and labels:
[1] = as reported in Diabetes Care 25:1271 (2002); cited from earlier work
rat Ins-1 beta cell line = settings: rat Ins-1 cells; effect not as dramatic as in responsive cell line
pancreatic β cells = test: Insulin secretion from pancreatic β cells with Ca2+ channel, α2-adrenergic and KATP modulators; settings: for effect on insulin secretion elicited by glyburide: in the presence of glyburide; for effect on insulin secretion caused by glucose, KIC, αKG or DPD: α2-adrenergic agonists
Protocol: The physiological relevance of insulin secretion from pancreatic β cells elicited by αKG was evaluated.
Possible targets for the segretagogue action of αKG were examined by reevaluating targets implicated for KIC-dependent increases in insulin secretion, since the effects of KIC are likely exerted through transamination that yields αKG. […] To biochemically test this hypothesis the inventors used known drugs to modulate KATP and then determined whether αKG and DPD could still affect insulin secretion.

Ins-1 cell = Ins-1 cell insulin secretion assay, preliminary SAR study in high glucose (FIG. 1); format: cell-based, rat; settings: presence of high glucose; Ins-1 cell assay
Protocol: The ability of various structurally-related compounds to alter insulin secretion in the presence of high glucose was tested in a preliminary structure-activity relationship (SAR) study to elucidate the molecular structures relevant to the insulin segretagogue potential of DPD and other αKG analogs. The compounds tested, shown in FIG. 1, are presented in order of decreasing ability to secrete insulin in an Ins-1 cell assay of the type described below in the Working Example. Each tested compound is commercially available and all were purchased from Sigma-Aldrich. Each compound contained two carboxylate groups. Variables evaluated in this study included the relative position of the carboxylate groups to one another, as well as the presence or absence of a nitrogen or sulfur group, additional R-groups, and esterified carboxy groups.

[2] = tested on: hyperexcitable Newgard Ins-1 cells; settings: low (3 mM) or high (15 mM) glucose; 2 hours at 3 mM glucose with compound, then 2 hours
Protocol: The cells were incubated at 3 mM glucose with the indicated concentrations of either αKG or the DPD analog for 2 hours. Then, the cells were incubated for an additional 2 hours in either 3 or 15 mM glucose.

β cells = settings: without affecting glucose metabolism; cited from earlier work

## CCOc1cc(CC(=O)N[C@@H](CC(C)C)c2ccccc2N2CCCCC2)ccc1C(=O)O [repaglinide]
[1]
  increase in insulin: 47%

## CCOC(=O)c1ccnc(C(=O)OCC)c1 [DPD, 2,4-diethyl pyridine dicarboxylate]
Rat Ins-1 beta cell line
  effect on insulin secretion (fractional insulin release): increase in insulin secretion
Pancreatic β cells
  potency on insulin secretion relative to αKG: extremely potent relative to αKG
  effect on insulin secretion elicited by glyburide: augmented
Ins-1 cell
  insulin secretion: ~14%
[2]
  effect upon insulin secretion (fractional insulin release): marked positive effect

## Clc1cccc(Cl)c1N=C1NCCN1 [clonidine]
Pancreatic β cells
  effect on insulin secretion caused by glucose, KIC, αKG or DPD: greatly suppressed

## CC1=NS(=O)(=O)c2cc(Cl)ccc2N1 [Diazoxide]
Pancreatic β cells; KATP agonist
  effect on ability of αKG, DPD and KIC to promote insulin release: completely suppresses

## CNC[C@H](O)c1ccc(O)c(O)c1 [epinephrine]
Pancreatic β cells
  effect on insulin secretion caused by glucose, KIC, αKG or DPD: greatly suppressed

## O=c1c(-c2ccc(O)cc2)coc2cc(O)cc(O)c12 [genistein]
β cells
  effect on KIC-stimulated insulin release: inhibited

## COc1ccc(Cl)cc1C(=O)NCCc1ccc(S(=O)(=O)NC(=O)NC2CCCCC2)cc1 [glyburide]
Pancreatic β cells; KATP antagonist
  insulin secretion elicited: elicits an insulin secretion

## CC(C)CC(=O)C(=O)O [KIC, α-ketoisocaproic acid]
Pancreatic β cells
  effect on insulin secretion elicited by glyburide: augmented

## O=C(O)CCC(=O)C(=O)O [αKG, α-ketoglutarate]
Pancreatic β cells
  effect on insulin secretion elicited by glyburide: augmented

## N#C/C(=C\c1ccc(O)c(O)c1)C(N)=S [tyrphostin A47]
β cells
  effect on KIC-stimulated insulin release: inhibited

## Cc1cnc(C(=O)NCCc2ccc(S(=O)(=O)NC(=O)NC3CCCCC3)cc2)cn1 [glipizide]
[1]
  increase in insulin: 54%
